Assay results reported in publication PMC12016938, “A small molecule PKCε inhibitor reduces hyperalgesia induced by paclitaxel or opioid withdrawal” (JCI Insight, 2025).
Values joined by “and” are separate entries in the source; they are usually repeats but may differ in a detail not shown here. Identical values can stand only once. Counter-ions that a name gives are not always drawn.

System: self-administration (addictive potential)
Assay: I.v. self-administration of CP612, between-session progressive ratio and demand curve
Protocol: We tested the addictive potential of CP612 by examining the extent to which rats are willing to work to obtain CP612. Rats were initially trained to self-administer either saline, morphine (500 μg/kg/i.v. infusion), or 1 of 3 different doses of CP612 (75, 150, or 300 μg/kg/i.v. infusion) for 4 days at fixed ratio 1 (FR1, where 1 nose poke delivers 1 infusion).
During the second phase, the ratio to obtain an infusion increased geometrically every other day (FR1, FR3, FR6, FR12, FR24, FR48, and FR96).
Data (number of self-infusions) were also fitted in an economic-demand curve, which provides an estimate of the motivation to obtain drugs and their addictive potential ([20]). We measured elasticity (α), which is the relative change in consumption as a function of price (i.e., ratio of nose pokes required to obtain an infusion). Behavior is considered “inelastic” when consumption is insensitive to price and “elastic” when consumption is sensitive to price. We also measured Pmax, which is the price at which intake switches from inelastic to elastic. […] (Figure 8B).
Rats not immediately anesthetized were eliminated from the study.
Following this initial acquisition phase at FR1, the ratio to obtain the drug was increased geometrically every other day: FR3 (3 nose pokes are required to obtain 1 infusion of morphine), FR6, FR12, FR24, FR48, and FR96. This allows for analysis of drug consumption as a function of “price” using demand curves for behavioral economics, which can estimate the motivation to obtain drugs and their “addictive potential” ([20]). For this, data from each rat were fitted to the equation log Q = log Q0 + k (e ^–α(Q0 ^C) – 1), where Q represents consumption (number of self-infusions), and Q0 represents the level of consumption at the lowest price. C represents price for the drug (i.e., the ratio), and k is set to a constant accounting for the estimated range of consumption in logarithmic units (k = 4 in these studies). The symbol α is the relative change in consumption across changes in price (ratio). Behavior is considered “inelastic” when consumption is insensitive to price (i.e., the curve is flat, and consumption is maintained despite increases in price), and it switches to “elastic” when consumption is sensitive to price (i.e., when the curve is steep and consumption declines with increases in price). […] We also compared groups for their average intake in the consumption-price curves by measuring α (elasticity) and Pmax.

[1] = morphine, individual rats, column in the AH block

With `CN1CC[C@]23c4c5ccc(O)c4O[C@H]2[C@@H](O)C=C[C@H]3[C@H]1C5` [Morphine, Morphine sulfate, reference compound] the “AVG Latency (FR3)” value (morphine, individual rats) was 0.17 and 0.173 and 1.3 and 0.2 and 0.6 and 1.9, the “AVG Latency (FR6)” value (morphine, individual rats) was 1.3 and 0.175 and 0.8 and 2.9 and 1.1 and 1.4 and the “AVG Latency (FR12)” value (morphine, individual rats) was 0.435 and 0.663 and 0.7 and 0.227 and 2.8 and 2.7. For the same compound, the “AVG Latency (FR24)” value (morphine, individual rats) was 1.2 and 0.75 and 0.9 and 0.754 and 0.6 and 2.4, the “AVG Latency (FR48)” value (morphine, individual rats) was 0.8 and 0.428 and 0.738 and 0.951 and 1.0 and the “AVG Latency (FR96)” value (morphine, individual rats) was 0.9 and 0.7 and 1.4 and 0.6 and 1.6. For the same compound, the “D1 AH (FR1)” value (morphine, individual rats) was 15 and 13 and 16 and 19 and 12, the “D1 AH (FR3)” value (morphine, individual rats) was 44 and 27 and 25 and 19 and 17 and 29 and the “D1 AH (FR6)” value (morphine, individual rats) was 38 and 54 and 48 and 37 and 30 and 17. For the same compound, the “D1 AH (FR12)” value (morphine, individual rats) was 76 and 90 and 97 and 95 and 40 and 39, the “D1 AH (FR24)” value (morphine, individual rats) was 167 and 144 and 79 and 198 and 125 and 58 and the “D1 AH (FR48)” value (morphine, individual rats) was 269 and 254 and 72 and 297 and 145 and 69. For the same compound, the “D1 AH (FR96)” value (morphine, individual rats) was 243 and 334 and 76 and 204 and 237 and 36, the “D1 IH (FR1)” value (morphine, individual rats) was 11 and 22 and 18 and 9 and 7 and the “D1 IH (FR3)” value (morphine, individual rats) was 16 and 9 and 5 and 2 and 13 and 11. The “D1 IH (FR6)” value (morphine, individual rats) was 3 and 5 and 7 and 18 and 10, the “D1 IH (FR12)” value (morphine, individual rats) was 10 and 5 and 16 and 3 and 7 and the “D1 IH (FR24)” value (morphine, individual rats) was 14 and 6 and 19 and 5 and 10. The “D1 IH (FR48)” value (morphine, individual rats) was 8 and 18 and 11 and 9 and 7 and 12, the “D1 IH (FR96)” value (morphine, individual rats) was 9 and 26 and 16 and 12 and 28 and the “D1 Inf (FR1)” value (morphine, individual rats) was 9 and 8 and 12 and 10. The “D1 Inf (FR3)” value (morphine, individual rats) was 11 and 8 and 5 and 4, the “D1 Inf (FR6)” value (morphine, individual rats) was 6 and 7 and 4 and 2 and the “D1 Inf (FR12)” value (morphine, individual rats) was 6 and 7 and 3. The “D1 Inf (FR24)” value (morphine, individual rats) was 6 and 5 and 3 and 8 and 4 and 2, the “D1 Inf (FR48)” value (morphine, individual rats) was 5 and 1 and 2 and the “D1 Inf (FR96)” value (morphine, individual rats) was 2 and 3 and 0. For the same compound, the “D1 Latency (FR1)” value (morphine, individual rats) was 9.3 and 15.1 and 26.3 and 3.9 and 5.9 and 0.853, the “D1 Latency (FR3)” value (morphine, individual rats) was 0.238 and 0.2 and 1.5 and 0.9 and 0.358 and the “D1 Latency (FR6)” value (morphine, individual rats) was 0.072 and 0.225 and 1.0 and 0.4 and 0.178 and 1.6. The “D1 Latency (FR12)” value (morphine, individual rats) was 0.038 and 1.0 and 0.6 and 0.032 and 1.6 and 1.2, the “D1 Latency (FR24)” value (morphine, individual rats) was 1.5 and 0.075 and 0.5 and 0.328 and 0.538 and 3.9 and the “D1 Latency (FR48)” value (morphine, individual rats) was 0.107 and 0.4 and 0.5 and 1.0 and 1.4 and 1.2. The “D1 Latency (FR96)” value (morphine, individual rats) was 0.7 and 0.8 and 1.4 and 0.438 and 2.3, the “D2 AH (FR1)” value (morphine, individual rats) was 16 and 10 and 8 and 18 and 17 and the “D2 AH (FR3)” value (morphine, individual rats) was 43 and 31 and 37 and 17 and 20 and 19. The “D2 AH (FR6)” value (morphine, individual rats) was 49 and 53 and 43 and 40 and 32 and 25, the “D2 AH (FR12)” value (morphine, individual rats) was 48 and 86 and 32 and 113 and 38 and 44 and the “D2 AH (FR24)” value (morphine, individual rats) was 162 and 155 and 80 and 176 and 120 and 64. For the same compound, the “D2 AH (FR48)” value (morphine, individual rats) was 196 and 251 and 75 and 213 and 125 and 57, the “D2 AH (FR96)” value (morphine, individual rats) was 164 and 368 and 38 and 192 and 184 and 36 and the “D2 IH (FR1)” value (morphine, individual rats) was 9 and 4 and 12 and 6 and 11. For the same compound, the “D2 IH (FR3)” value (morphine, individual rats) was 4 and 6 and 12 and 14 and 17 and 7, the “D2 IH (FR6)” value (morphine, individual rats) was 10 and 9 and 13 and 8 and 12 and the “D2 IH (FR12)” value (morphine, individual rats) was 12 and 14 and 22 and 7 and 1. For the same compound, the “D2 IH (FR24)” value (morphine, individual rats) was 8 and 14 and 11 and 10 and 7, the “D2 IH (FR48)” value (morphine, individual rats) was 9 and 13 and 27 and 12 and 14 and the “D2 IH (FR96)” value (morphine, individual rats) was 8 and 11 and 15 and 13 and 24. For the same compound, the “D2 Inf (FR1)” value (morphine, individual rats) was 11 and 9 and 7 and 10 and 12, the “D2 Inf (FR3)” value (morphine, individual rats) was 10 and 9 and 11 and 5 and the “D2 Inf (FR6)” value (morphine, individual rats) was 8 and 7 and 6 and 4. The “D2 Inf (FR12)” value (morphine, individual rats) was 4 and 6 and 2 and 9 and 3, the “D2 Inf (FR24)” value (morphine, individual rats) was 6 and 3 and 7 and 4 and 2 and the “D2 Inf (FR48)” value (morphine, individual rats) was 4 and 5 and 1 and 2. The “D2 Inf (FR96)” value (morphine, individual rats) was 1 and 3 and 0, the “D2 Latency (FR1)” value (morphine, individual rats) was 0.152 and 0.662 and 1.3 and 0.455 and 0.133 and 2.0 and the “D2 Latency (FR3)” value (morphine, individual rats) was 0.1 and 0.137 and 1.1 and 0.19 and 0.327 and 3.5. The “D2 Latency (FR6)” value (morphine, individual rats) was 2.5 and 0.125 and 0.7 and 5.3 and 1.9 and 1.1, the “D2 Latency (FR12)” value (morphine, individual rats) was 0.8 and 0.372 and 0.7 and 0.422 and 4.1 and the “D2 Latency (FR24)” value (morphine, individual rats) was 0.9 and 1.4 and 1.3 and 1.2 and 0.7 and 0.8. For the same compound, the “D2 Latency (FR48)” value (morphine, individual rats) was 1.4 and 0.457 and 1.0 and 0.9 and 0.543 and 0.367, the “D2 Latency (FR96)” value (morphine, individual rats) was 1.1 and 0.555 and 1.4 and 0.748 and 0.66 and 1.0 and the “D3 AH (FR1)” value (morphine, individual rats) was 24 and 13 and 8 and 20 and 17. The “D3 IH (FR1)” value (morphine, individual rats) was 18 and 4 and 15 and 3 and 20 and 8, the “D3 Inf (FR1)” value (morphine, individual rats) was 10 and 7 and 14 and the “D3 Latency (FR1)” value (morphine, individual rats) was 0.3 and 0.137 and 7.8 and 0.352 and 0.9 and 0.327. The “D4 AH (FR1)” value (morphine, individual rats) was 23 and 12 and 13 and 17 and 15, the “D4 IH (FR1)” value (morphine, individual rats) was 3 and 5 and 8 and 6 and 9 and the “D4 Inf (FR1)” value (morphine, individual rats) was 13 and 10 and 11 and 9 and 8. The “D4 Latency (FR1)” value (morphine, individual rats) was 0.06 and 0.143 and 4.0 and 0.342 and 1.1, the “last AH (FR1)” value (morphine, individual rats) was 21 and 12 and 18 and 22 and 14 and 10 and the “last IH (FR1)” value (morphine, individual rats) was 4 and 1 and 3 and 7 and 9. For the same compound, the “last Inf (FR1)” value (morphine, individual rats) was 15 and 10 and 12 and 17 and 9 and 7, the “last Latency (FR1)” value (morphine, individual rats) was 0.5 and 0.7 and 2.0 and 0.017 and 0.4 and 1.1 and the “last-1 AH (FR1)” value (morphine, individual rats) was 23 and 12 and 13 and 17 and 15. For the same compound, the “last-1 IH (FR1)” value (morphine, individual rats) was 3 and 5 and 8 and 6 and 9, the “last-1 Inf (FR1)” value (morphine, individual rats) was 13 and 10 and 11 and 9 and 8 and the “last-1 Latency (FR1)” value (morphine, individual rats) was 0.06 and 0.143 and 4.0 and 0.342 and 1.1. The “last-2 AH (FR1)” value (morphine, individual rats) was 24 and 13 and 8 and 20 and 17, the “last-2 IH (FR1)” value (morphine, individual rats) was 18 and 4 and 15 and 3 and 20 and 8 and the “last-2 Inf (FR1)” value (morphine, individual rats) was 10 and 7 and 14. For the same compound, the “last-2 Latency (FR1)” value (morphine, individual rats) was 0.3 and 0.137 and 7.8 and 0.352 and 0.9 and 0.327, the “last-3 AH (FR1)” value (morphine, individual rats) was 24 and 13 and 8 and 18 and 10 and 17 and the “last-3 IH (FR1)” value (morphine, individual rats) was 18 and 4 and 12 and 6 and 11. For the same compound, the “last-3 Inf (FR1)” value (morphine, individual rats) was 10 and 7 and 11 and 12, the “last-3 Latency (FR1)” value (morphine, individual rats) was 0.3 and 0.137 and 1.3 and 0.455 and 0.133 and 2.0 and the “AVG Inf (FR1_D1 to D4)” value [1] was 19.5 and 12.0 and 11.0 and 16.8 and 14.8 and 15.3. For the same compound, the “AVG Inf (FR1_Last 2 FR1 days)” value [1] was 22.0 and 12.0 and 15.5 and 17.5 and 12.5, the “AVG Inf (FR1_Last 4 FR1 days)” value [1] was 23.0 and 12.5 and 11.8 and 18.3 and 13.5 and 14.8 and the “AVG AH (FR3)” value (per-rat average) was 24.0 and 20.5 and 23.0. The “AVG AH (FR6)” value (per-rat average) was 55.0 and 42.0 and 46.5, the “AVG AH (FR12)” value (per-rat average) was 107.5 and 82.0 and 88.0 and the “AVG AH (FR24)” value (per-rat average) was 143.0 and 145.0 and 172.0. The “AVG AH (FR48)” value (per-rat average) was 138.0 and 149.0 and 142.5, the “AVG AH (FR96)” value (per-rat average) was 116.5 and 141.0 and 156.0 and the “AVG IH (FR1_Last 2 FR1 days)” value (per-rat average) was 1.5 and 3.0. For the same compound, the “AVG IH (FR6)” value (per-rat average) was 4.5 and 8.5 and 7.5, the “AVG IH (FR48)” value (per-rat average) was 16.0 and 12.0 and 23.5 and the “AVG Inf (FR1_D1 to D4)” value (per-rat average) was 6.0 and 7.3 and 9.3. The “AVG Inf (FR1_Last 2 FR1 days)” value (per-rat average) was 6.5 and 7.5, the “AVG Inf (FR1_Last 4 FR1 days)” value (per-rat average) was 6.0 and 7.0 and 8.3 and the “AVG Inf (FR3)” value (per-rat average) was 7.5 and 5.5 and 7.0. For the same compound, the “AVG Inf (FR6)” value (per-rat average) was 8.0 and 6.5 and 7.0, the “AVG Inf (FR12)” value (per-rat average) was 8.5 and 5.5 and 6.5 and the “AVG Inf (FR24)” value (per-rat average) was 5.0 and 5.5 and 6.5. The “AVG Inf (FR48)” value (per-rat average) was 2.5, the “AVG Inf (FR96)” value (per-rat average) was 1.0 and the “AVG Latency (FR1_D1 to D4)” value (per-rat average) was 0.7 and 1.3 and 0.8. The “AVG Latency (FR3)” value (per-rat average) was 0.3 and 0.6 and 0.339 and the “AVG Latency (FR96)” value (per-rat average) was 0.8 and 0.7 and 0.9.
